Reference: patent US20250089713A1, “METHOD OF CONTROLLING OR REDUCING SENESCENCE IN PLANTS AND SEEDS” (Bedoukian Reseach, Inc., priority 2023, published 2025)
Several values for one entry are separate records, joined by “and”; a condition that tells them apart may be missing. Identical values can stand only once.

Tests used:
[1] = tested on: seeds of the corn varietal Kandy Korn; experiment: Reduction of retarded seed germination rate senescence, seed soak (germination rate and radicle length); format: in vivo
Description: Non-germinated seeds of the corn varietal Kandy Korn are soaked in one of two treatment solutions: T1: untreated, only water and T2: treated, 1.5 mM (0.034% wt) of methyl dihydrojasmonate (MDJ) in water for 24 hours in 50 mL conical vessels. During the soak event, the seeds spend 12 hours in typical lighting conditions and 12 hours in darkness. Following seed treatment, the treatment solutions are drained from their vessels and a selection of seeds are taken from each vessel for planting. Six two-inch pots are planted for each treatment group, with three seeds per pot, for a total of 18 seeds planted per treatment. The unplanted seeds are allowed to remain in their original vessels in lighted conditions. In addition to determining the germination rate, the radicle lengths of the germinated seeds are measured.

[2] = tested on: corn (Kandy Korn, extra sweet) plants; experiment: Reduction of plant wilting senescence, foliar spray on corn seedlings; format: in vivo; conditions: foliar spray of 1 mM (0.023% wt) in water at day 18, observed at day 25, n = 12, untreated 65%
Description: Seeds of corn (Kandy Korn, extra sweet) are planted in 2-inch pots. Seedlings are grown in 2-inch pots under 16-hour day/8-hour night greenhouse conditions. Plants are placed outdoors and receive 5-6 hours of natural, direct light 4-6 days per week. At day 18, seedlings receive one of two treatments: T1: untreated plants (n=11) and T2: treated, plants with foliar spray of 1 mM (0.023% wt) of methyl dihydrojasmonate (MDJ) in water. Plants are sprayed until the point of drip. (n=12). At day 25, plants are observed and senescence is recorded (percentage of wilting plants).

`CCCCCC1C(=O)CCC1CC(=O)OC` (stereo not shown) [MDJ, methyl dihydrojasmonate] was tested, and the “Germination Rate (percent of seeds that germinated)” value ([1]; corn seeds soaked 24 hours in 1.5 mM (0.034% wt) in water, n = 10, untreated (only water) 50%) was 100%, the “Radicle length measurements of unplanted germinated seeds (individual seeds)” value ([1]; corn seeds soaked 24 hours in 1.5 mM in water, one value per seed, untreated 1-3 mm, listed as Methyl Dihydrojasmonate (MDJ)) was 5 mm (3×) and 6 mm (2×) and 4 mm (4×) and 3 mm and the “average radicle length compared with untreated (only water)” value ([1]; corn seeds soaked in 1.5 mM, FIG. 2) was “significantly longer”. For the same compound, the “% of plants with senescing plant wilting” value [2] was 25%.
